Source: patent US20130023540A1, “TREATMENT OF MASTITIS” (BAYER HEALTHCARE AG, priority 2004, published 2013)

Assay: investigation of the substances having an antibacterial effect in bovine milk following parenteral administration of enrofloxacin
Type: in vivo

Compound	antibacterial activity in bovine milk (enrichment of active compounds as compared with the serum concentration)	proportion in the milk
CCN1CCN(c2cc3c(cc2F)c(=O)c(C(=O)O)cn3C2CC2)CC1 [enrofloxacin, 1-cyclopropyl-7-(4-ethyl-1-piperazinyl)-6-fluoro-1,4-dihydro-4-oxo-3-quinolone-carboxylic acid]	high antibacterial activity	~10%
O=C(O)c1cn(C2CC2)c2cc(N3CCNCC3)c(F)cc2c1=O [ciprofloxacin, 1-cyclopropyl-7-(1-piperazinyl)-6-fluoro-1,4-dihydro-4-oxo-3-quinolonecarboxylic acid]		~90%
